Experimental data from patent US20120296403A1, “METHODS AND COMPOUNDS FOR MUSCLE GROWTH” (NOVARTIS AG, priority 2010, published 2012).
Where a SMILES comes first, the peptide text is derived from it. The star is where a group is joined. Cbz = O=C(OCc1ccccc1)*

Assays:
IRS1 [1] = test: IRS1 degradation / protein stability in C2C12 myotubes (Western blotting); format: cell-based, mouse; details: for IRS1 degradation upon treatment: increasing concentration, along with protein synthesis inhibitor Emetin, dose-dependent
Method: Differentiated C2C12 myotubes are treated with increasing concentration of IGF1 or dexmethasome (DEX), a glucocorticoid that can lead to muscle atrophy, along with protein synthesis inhibitor Emetin (Eme). […] In C2C12 myotubes, IRS1 is rapidly degraded upon IGF1 treatment with a half-life of around 2 hours (FIGS. 4B and 4E).
Cells are washed twice with warm serum free DMEM and starved in serum free DMEM for 4 hours with an exchange of fresh medium in the middle. Then the signaling inhibitors are added to pretreat cells for 30 min before incubation with freshly prepared inhibitors with 10 nM IGF1 (the R3 form, Sigma, St. Louis, Mo.) or 10 μM Emetin (Sigma, St. Louis, Mo.) or 20 μM MG132 (Alexis Biochemicals, Carlsbad, Calif.) as specified for an additional 5 hours. Cells are rinsed two times with ice-cold PBS and harvested in ice-cold RIPA buffer with 10 μM MG132 and protease/phosphatase inhibitors tablets (Roche, Basel, Switzerland). Cell lysates are rotated at 4° C. for at least one hour, and spun for 10 min at 16,000×g in a micro centrifuge at 4° C. Protein concentrations of the supernatants are determined by BCA Protein Assay Kit (Pierce/Thermo Fisher Scientific, Rockford, Ill.). Equal amounts of proteins (10-20 μg) are loaded per lane on 4-12% Bis-Tris gels (Invitrogen, Carlsbad, Calif.) and transferred onto PVDF membranes (Millipore, Billerica, Mass.). Membranes are blocked in 10% (w/v) milk in TBST for 1 hour at room temperature, followed by incubation with primary antibody in TBST with 5% BSA at 4° C. for overnight. Secondary antibodies are incubated with membranes at room temperature for 1 hour. Immunoreactivity is detected by ECL and exposed to film or Kodak Image Station 4000R (Eastman Kodak Company, Rochester, N.Y.). Densitometry is analyzed using Kodak Molecular Imaging software, version 4.0.
Cells are washed twice with warm serum-free DMEM and starved in serum-free DMEM for 4 hours with an exchange of fresh medium in the middle. At time zero, 10 μM Emetin, or 100 μg/ml of cycloheximide, or 10 nM IGF1, or 20 μM MG132 are added to cells as specified. At the indicated time intervals, cells are rinsed twice with PBS and harvested in ice-cold RIPA buffer with 10 μM MG132 and protease/phosphatase inhibitors. Cell lysates are rotated at 4° C. for at least one hour, and spun for 10 min at 16,000×g in a micro centrifuge at 4° C. The supernatants are analyzed by western blotting.

Fbxo40 = Fbxo40 protein level after MG132 incubation (co-immunoprecipitation experiment, C2C12 myotubes); format: cell-based, mouse; details: 20 μM MG132
Source text: Ye et al. 2007 Gene 404: 53-60. We survey the FirstChoice Human Total RNA Panel by quantitative real-time PCR and find that Fbxo40 is highly expressed in heart and muscle (FIG. 3). Furthermore, its mRNA (FIG. 6B) and protein (FIG. 8A) is induced during differentiation of C2C12 cells, which coincides with the accelerated degradation of IRS1 in C2C12 myotubes. IRS1 and Rbx1 can be co-immunoprecipitated with antibody against Fbxo40 (FIG. 6C). […] We also use this immunoprecipitated Fbxo40-Rbx1 complex to ubiquitinate recombinant IRS1 in-vitro and find that IRS1 can be ubiquitinated in a time-dependent manner (FIG. 6D). In this experiment, we include six control reactions. The first four controls are the reactions carried out at 30° C. for 90 min with the omission of E1, or E2 (UbCH5c), or His6-Biotin-N-terminal Ubiquitin, or recombinant IRS1 respectively. The last two controls are full reactions carried out without immunoprecipitated Fbxo40 (with beads incubated with lysate without IgG or with nonspecific rabbit IgG). Poly-ubiquitinated IRS1 can be observed in full reactions after 60 min or 90 min at 30° C.
Alternatively, in the experiment of IRS1 and Rbx1 Co-Immunoprecipitation with Fbxo40, day 3 C2C12 myotubes are starved and treated with 10 nM IGF1 or 20 μM MG132 as described above. […]

IRS1 [2] = test: In-vivo ubiquitination assay and immunoprecipitation of IRS1 in C2C12 myotubes; format: cell-based, mouse; details: C2C12 myotubes overexpressing his-myc tagged ubiquitin, 10 nM IGF1
Method: Since ubiquitinated proteins are rapidly degraded in cells, in order to detect ubiquitinated IRS1 protein in the experiment shown in FIG. 4C, C2C12 myotubes are infected with an adenovirus overexpressing his-myc tagged ubiquitin and incubated with IGF1 along with MG132 or an isopeptidase inhibitor G5. IRS1 is immunoprecipitated with the rabbit polyclonal anti-IRS1 antibody (lanes 6, 8, 10, 12) or non-specific IgG (lanes 5, 7, 9, 11) as control. Poly-ubiquitination is detected with monoclonal anti-myc antibody against the his-myc tagged ubiquitin and is found to be specifically immunoprecipitated with IRS1 (FIG. 4C, upper panel). […] Note that in the upper panel of FIG. 4C, G5 treatment also causes an upper shift of his-myc tagged ubiquitin in comparison to MG132 treatment alone (compare lane 10 to lane 8). In agreement with the induced degradation of IRS1 upon IGF1 treatment, poly-ubiquitinated IRS1 also increases with IGF1 treatment (FIG. 4D, upper panel) despite that the total amount of ubiquitinated proteins in cells even decreased a little (FIG. 4D, lower panel).
A His-myc-ubiquitin adenoviral expression constructs are sent to Welgen Inc. (Worcester, Mass.) for production and purification. […] Protein concentration in the supernatant is determined by BCA analysis. […] An aliquot (20 μg) of the lysate is analyzed by Western blotting along with 100% of the eluate.

[3] = molecular target: purified recombinant IRS1 protein (Millipore)
Chain of purified recombinant IRS1 protein (Millipore) (P35568 whole entry): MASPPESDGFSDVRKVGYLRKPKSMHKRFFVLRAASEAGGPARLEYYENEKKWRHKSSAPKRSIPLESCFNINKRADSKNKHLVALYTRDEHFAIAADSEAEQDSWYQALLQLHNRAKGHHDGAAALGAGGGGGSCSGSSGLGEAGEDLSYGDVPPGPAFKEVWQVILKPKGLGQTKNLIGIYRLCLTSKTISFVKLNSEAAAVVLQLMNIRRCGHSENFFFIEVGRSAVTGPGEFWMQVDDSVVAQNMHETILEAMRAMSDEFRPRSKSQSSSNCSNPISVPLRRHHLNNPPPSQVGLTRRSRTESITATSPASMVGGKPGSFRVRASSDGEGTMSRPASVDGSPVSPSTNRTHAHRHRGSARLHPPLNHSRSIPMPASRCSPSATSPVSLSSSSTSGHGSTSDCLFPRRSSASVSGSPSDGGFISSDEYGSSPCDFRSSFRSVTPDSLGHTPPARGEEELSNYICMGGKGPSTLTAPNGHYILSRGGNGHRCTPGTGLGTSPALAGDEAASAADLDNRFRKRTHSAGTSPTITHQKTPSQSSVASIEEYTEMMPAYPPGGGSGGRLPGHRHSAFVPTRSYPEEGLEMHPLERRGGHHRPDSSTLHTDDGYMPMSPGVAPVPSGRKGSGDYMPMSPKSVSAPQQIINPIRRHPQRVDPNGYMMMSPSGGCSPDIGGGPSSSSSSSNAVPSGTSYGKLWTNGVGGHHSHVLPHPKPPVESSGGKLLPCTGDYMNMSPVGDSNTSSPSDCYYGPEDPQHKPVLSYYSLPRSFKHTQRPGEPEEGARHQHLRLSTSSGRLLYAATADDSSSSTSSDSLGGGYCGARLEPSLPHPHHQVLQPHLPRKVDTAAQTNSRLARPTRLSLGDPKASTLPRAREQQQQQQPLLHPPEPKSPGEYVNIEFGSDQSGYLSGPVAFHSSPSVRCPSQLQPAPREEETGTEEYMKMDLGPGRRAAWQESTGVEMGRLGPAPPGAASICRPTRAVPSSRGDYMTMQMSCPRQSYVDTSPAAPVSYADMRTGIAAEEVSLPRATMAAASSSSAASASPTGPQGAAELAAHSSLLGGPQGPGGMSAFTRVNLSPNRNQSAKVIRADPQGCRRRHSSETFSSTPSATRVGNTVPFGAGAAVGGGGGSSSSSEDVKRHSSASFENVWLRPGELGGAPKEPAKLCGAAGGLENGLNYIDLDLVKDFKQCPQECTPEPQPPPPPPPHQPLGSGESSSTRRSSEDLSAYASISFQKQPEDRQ

Molecule: C[C@@H]1C[C@H]2[C@@H]3CCC4=CC(=O)C=C[C@]4(C)[C@@]3(F)[C@@H](O)C[C@]2(C)[C@@]1(O)C(=O)CO [DEX, dexmethasome, reference compound]
- IRS1 degradation upon treatment (IRS1 [1]): not

Molecule: CC(C)C[C@@H](C=O)NC(=O)[C@H](CC(C)C)NC(=O)[C@H](CC(C)C)NC(=O)OCc1ccccc1 [MG132, reference compound] (Cbz-Leu-Leu-Leu-aldehyde)
- Fbxo40 protein level after incubation with MG132 (Fbxo40): increases
- stabilization of IRS1 protein (IRS1 [1]; IGF1 treatment, 20 μM MG132): substantially stabilizes

Molecule: insulin-like growth factor-1 (IGF1)
- poly-ubiquitinated IRS1 (IRS1 [2]): increases
- half-life of IRS1 upon IGF1 treatment (IRS1 [1]; 10 nM IGF1): around 2 hours
- protein level of IRS1 in cells treated with IGF1 alone (IRS1 [1]; IGF1 alone (no Emetin), slower kinetics): decreases
- IRS1 degradation upon treatment (IRS1 [1]): IRS1 is degraded

B1: Fbxo40, endogenous in C2C12 myotubes (protein)
chain: MGRARKPPPALHRHCEGCFNRHCHVPVEPSVSCLVISCHLLCGATFHMCKESEHTLLCPLEQVPCLNSEYGCPLSMARHKLAKHLQVCPASVVCCSMEWIRWPNVDSETFLHENIMKETPSEECLDTALALQDQKVLFRSLKMVELFPETRDATEEEPDMNGDTSWEETGGAVGGVDARLAPNSCLPATSRQMMELSQEERDALAKTKEGMDLDKFGKWESMFSKEHAASVLTGSLGKSEDKNGDVAGKEQCSSNVRIGDAEGSAERRGPQESQKSQELPATMEMTGLAPWQDGVLERLKTAVDAKDYNMYLVHNGRMLIHFGQMPACTPKERDFVYGNLEAQEVKTVYTFKIPVSYCGKRARLGDAMLKCRPSEHKAVDTSDLGISVEDLPKSDLIKTTLQCALERELKGHVISESRSIDGLFMDLATQTYNFEPEQFSSETVLADLLGTAQPGGLHVELHSECVTRRHNKSSSAFTFTCNKFFRRDEFPLHFKNVHTDIQSSLDGWFQHRCPLAYLGCTFVQNHFRPPGQKAKVIYSQELKTFAIKPEVAPELSEKWKSDHLSGRDGKSLNSLTSLPLEVLQYIAGFLDSISLSQLSQVSVLMRNICATLLQERGMVLSQWKKKRYSHGGTSWKVHNQIWQFSSLFSKINSWEFNDVTSMSEHLKTCPFNIVERKTDPIRLTSMCQPQEKARESLVSTFRARPRGRHF
- in-vitro ubiquitination of recombinant IRS1 (streptavidin-HRP blot of His6-Biotin-ubiquitin) [3]: IRS1 can be ubiquitinated in a time-dependent manner
